The values that follow come from patent publication US11299518B2, “Fusion respiratory syncytial virus inhibitors and use thereof” (priority 2016, dated 2022).

As a reminder, the EC50 is the concentration giving half of the maximal effect.

Bridge positions count the residues as written; N and C are the ends. Square brackets hold non-standard residues; d marks the D form. Peptide text beside a SMILES is read from it. Gly(cPent) = N[C@H](C(=O)O)C1CCCC1; tBuAla = CC(C)(C)C[C@H](N)C(=O)O; Cha = N[C@@H](CC1CCCCC1)C(=O)O; Chg = N[C@H](C(=O)O)C1CCCCC1; R5 = C=CCCC[C@@](C)(N)C(=O)O; S5 = C=CCCC[C@](C)(N)C(=O)O

Data set [1] is described as follows: CD spectroscopy, percentage of helicity. It counts as physicochemical. As to conditions: CD at 222 nm, 10 mM phosphate buffer pH 7.5, 50 μM peptide, 25° C. Here is the method: The secondary structure of the peptides was then characterized by circular dichroism (DC) as described below.
The circular dichroism spectra were acquired on a Jasco J-810 and on a Chirascan spectropolarimeter. The samples were prepared in 10 mM phosphate buffer, pH 7.5, at a peptide concentration of 50 μM. Data were recorded at 25° C. by stepscan from 180 nm to 260 nm in a 0.1 cm pathlength quartz cell using 0.2 nm wavelength increments, 1 nm bandwidth and a response time of 0.5 sec. Each spectrum was an average of three measurements and was subtracted from buffer baseline. The data were converted to per residue molar ellipticity units [θ] (deg·cm2·dmol−1·residue−1) and smoothed using the Igor software. The percentage of helicity was calculated as it follows:
[formula] whereby CD222=molar ellipticity at 222 nm in [mdeg], N=number of amino acids in the peptide and C=peptide molar concentration [mol/l].

Data set [2] can be described thus: circular dichroism. As to conditions: 10 mM phosphate; pH 7.5; 25 °C; 50 uM. (In general: CD spectra are sensitive to the conformation of chiral molecules.)
Data set [3] deals with RSV-mCherry. It is filed as cell-based, HRSV. The method, then: The inhibitory activity of the peptides of the invention was assessed in HEp-2 cells as described below:
A mCherry-expressing virus recently developed (Rameix-Welti et al., 2014, Nat. Commun., 5:5104) was used to avoid the cumbersome manipulations required with the GFP-expressing virus.
HEp-2 cells were seeded at 5×10^4 cells per well in 96 wells plate the day before the infection. Peptides were 2-fold serially diluted in DMSO (11 dilutions), then further diluted in MEM medium and pre-incubated for 15-20 minutes with 0.2 MOI of RSV-mCherry (Rameix-Welti et al., 2014, supra). Following the washing of Hep-2 cells with MEM without phenol red medium, the cells were incubated with the virus/peptide mixtures for a period of 1 h30-2 h. The cells were washed and further incubated in MEM media containing fetal bovine serum and the same concentration of peptide that was used during the infection step. Plates were incubated 48 h at 37° C. and the mCherry fluorescence was measured using a spectrofluorometer (Tecan infinite M200PRO) with excitation and emission wavelengths of 580 and 620 nm, respectively (expressed in relative fluorescence units RFU). Non-infected HEp-2 cells were used as standards for fluorescence background levels. Each experiment was performed in duplicate and repeated at least twice.

In the case of `CC[C@H](C)[C@@H]1NC(=O)[C@H](Cc2ccccc2)NC(=O)[C@@](C)(NC(=O)[C@H](CC(C)C)NC(=O)[C@H](CO)NC(=O)[C@]2(C)CCCC=CCCC[C@@](C)(NC(=O)[C@H](CCC(=O)O)NC(C)=O)C(=O)N[C@@H]([C@@H](C)CC)C(=O)N[C@@H](CCCNC(=N)N)C(=O)N2)CCCC=CCCC[C@@](C)(C(=O)N[C@@H](CO)C(=O)N[C@@H](CC(=O)O)C(=O)N[C@@H](CCC(=O)O)C(=O)N[C@@H](CC(C)(C)C)C(=O)N[C@@H](CC(C)C)C(=O)N[C@@H](Cc2c[nH]cn2)C(=O)N[C@@H](CC(N)=O)C(=O)N[C@H](C(N)=O)C(C)C)NC(=O)[C@H](CCCNC(=N)N)NC1=O` [Peptide 4ca-var6, E Xaa2 IR Xaa5 SL Xaa8 FIR Xaa12 SDE Xaa16LHNV] (Ac-E[R5]IR[S5]SL[S5]FIR[S5]SDE[tBuAla]LHNV-NH2; staple 2-5, 8-12), in data set [1], the “% helicity” value is 85.6%. This molecule returned a helicity in data set [2] of 85.6%.

For `CC[C@H](C)[C@@H]1NC(=O)[C@H](Cc2ccccc2)NC(=O)[C@@](C)(NC(=O)[C@H](CC(C)(C)C)NC(=O)[C@H](CO)NC(=O)[C@]2(C)CCCC=CCCC[C@@](C)(NC(=O)[C@H](CCC(=O)O)NC(C)=O)C(=O)N[C@@H]([C@@H](C)CC)C(=O)N[C@@H](CC(N)=O)C(=O)N2)CCCC=CCCC[C@@](C)(C(=O)N[C@@H](CO)C(=O)N[C@@H](CC(=O)O)C(=O)N[C@@H](CCC(=O)O)C(=O)N[C@@H](CC(C)C)C(=O)N[C@@H](CC(C)C)C(=O)N[C@@H](Cc2c[nH]cn2)C(=O)N[C@@H](CC(N)=O)C(=O)N[C@H](C(N)=O)C(C)C)NC(=O)[C@H](CCCNC(=N)N)NC1=O` [Peptide 4ca-var1] (Ac-E[R5]IN[S5]S[tBuAla][S5]FIR[S5]SDELLHNV-NH2; staple 2-5, 8-12), in data set [1], the “% helicity” value was 89.3%. Moreover, the helicity in data set [2] was determined as 89.3%.

With `CC[C@H](C)[C@@H]1NC(=O)[C@H](Cc2ccccc2)NC(=O)[C@@](C)(NC(=O)[C@@H](NC(=O)[C@H](CO)NC(=O)[C@]2(C)CCCC=CCCC[C@@](C)(NC(=O)[C@H](CCC(=O)O)NC(C)=O)C(=O)N[C@@H]([C@@H](C)CC)C(=O)N[C@@H](CC(N)=O)C(=O)N2)C2CCCC2)CCCC=CCCC[C@@](C)(C(=O)N[C@@H](CO)C(=O)N[C@@H](CC(=O)O)C(=O)N[C@@H](CCC(=O)O)C(=O)N[C@@H](CC(C)C)C(=O)N[C@@H](CC(C)C)C(=O)N[C@@H](Cc2c[nH]cn2)C(=O)N[C@@H](CC(N)=O)C(=O)N[C@H](C(N)=O)C(C)C)NC(=O)[C@H](CCCNC(=N)N)NC1=O` [Peptide 4ca-var2] (Ac-E[R5]IN[S5]S[Gly(cPent)][S5]FIR[S5]SDELLHNV-NH2; staple 2-5, 8-12), the “% helicity” value in data set [1] amounted to 90.3%. Also, the helicity in data set [2] is 90.3%.

As to `CC[C@H](C)[C@@H]1NC(=O)[C@H](Cc2ccccc2)NC(=O)[C@@](C)(NC(=O)[C@H](CC(C)C)NC(=O)[C@H](CO)NC(=O)[C@]2(C)CCCC=CCCC[C@@](C)(NC(=O)[C@H](CCC(=O)O)NC(C)=O)C(=O)N[C@@H]([C@@H](C)CC)C(=O)N[C@@H](CCCCN)C(=O)N2)CCCC=CCCC[C@@](C)(C(=O)N[C@@H](CO)C(=O)N[C@@H](CC(=O)O)C(=O)N[C@@H](CCC(=O)O)C(=O)N[C@@H](CC(C)(C)C)C(=O)N[C@@H](CC(C)C)C(=O)N[C@@H](Cc2c[nH]cn2)C(=O)N[C@@H](CC(N)=O)C(=O)N[C@H](C(N)=O)C(C)C)NC(=O)[C@H](CCCNC(=N)N)NC1=O` [Peptide 4ca-var5, E Xaa2 IK Xaa5 SL Xaa8 FIR Xaa12 SDE Xaa16LHNV] (Ac-E[R5]IK[S5]SL[S5]FIR[S5]SDE[tBuAla]LHNV-NH2; staple 2-5, 8-12), in data set [1], the “% helicity” value came out at 82.3%. Moreover, the helicity in data set [2] was found to be 82.3%.

On to `CC[C@H](C)[C@@H]1NC(=O)[C@H](Cc2ccccc2)NC(=O)[C@@](C)(NC(=O)[C@H](CC(C)C)NC(=O)[C@H](CO)NC(=O)[C@]2(C)CCCC=CCCC[C@@](C)(NC(=O)[C@H](CCC(=O)O)NC(C)=O)C(=O)N[C@@H]([C@@H](C)CC)C(=O)N[C@@H](CC(N)=O)C(=O)N2)CCCC=CCCC[C@@](C)(C(=O)N[C@@H](CO)C(=O)N[C@@H](CC(=O)O)C(=O)N[C@@H](CCC(=O)O)C(=O)N[C@@H](CC(C)(C)C)C(=O)N[C@@H](CC(C)C)C(=O)N[C@@H](Cc2c[nH]cn2)C(=O)N[C@@H](CC(N)=O)C(=O)N[C@H](C(N)=O)C(C)C)NC(=O)[C@H](CCCNC(=N)N)NC1=O` [Peptide 4ca-var4, E Xaa2 IN Xaa5 SL Xaa8 FIR Xaa12 SDE Xaa16LHNV] (Ac-E[R5]IN[S5]SL[S5]FIR[S5]SDE[tBuAla]LHNV-NH2; staple 2-5, 8-12), for which the “% helicity” value in data set [1] was 98.4%. Besides, in data set [2], the helicity was found to be 98.4%. Further, in data set [3] (HEp-2 cells, 0.2 MOI RSV-mCherry, 48 h), the EC50 came out at 0.2 ± 0.05 µM.

`CC[C@H](C)[C@H](NC(=O)[C@H](Cc1ccccc1)NC(=O)[C@H](C)NC(=O)[C@H](CC(C)C)NC(=O)[C@H](CO)NC(=O)[C@H](CCC(N)=O)NC(=O)[C@H](CCC(=O)O)NC(C)=O)C(=O)N[C@@H](CCCNC(=N)N)C(=O)N[C@@H](CCCCN)C(=O)N[C@@H](CO)C(=O)N[C@@H](CC(=O)O)C(=O)N[C@@]1(C)CCCC=CCCC[C@@](C)(C(=O)N[C@H](C(N)=O)C(C)C)NC(=O)[C@H](Cc2c[nH]cn2)NC(=O)[C@H](CC(C)C)NC(=O)[C@H](CC(C)C)NC1=O` [Peptide 3c, reference compound] (Ac-EQSLAFIRKSD[S5]LLH[S5]V-NH2; staple 12-16): the “inhibitory activity in HEp-2 cells” value in data set [3] (RSV-mCherry) was “inactive”.

Take `CC[C@H](C)[C@@H]1NC(=O)[C@H](Cc2ccccc2)NC(=O)[C@@](C)(NC(=O)[C@@H](NC(=O)[C@H](CO)NC(=O)[C@]2(C)CCCC=CCCC[C@@](C)(NC(=O)[C@H](CCC(=O)O)NC(C)=O)C(=O)N[C@@H]([C@@H](C)CC)C(=O)N[C@@H](CC(N)=O)C(=O)N2)C2CCCCC2)CCCC=CCCC[C@@](C)(C(=O)N[C@@H](CO)C(=O)N[C@@H](CC(=O)O)C(=O)N[C@@H](CCC(=O)O)C(=O)N[C@@H](CC(C)C)C(=O)N[C@@H](CC(C)C)C(=O)N[C@@H](Cc2c[nH]cn2)C(=O)N[C@@H](CC(N)=O)C(=O)N[C@H](C(N)=O)C(C)C)NC(=O)[C@H](CCCNC(=N)N)NC1=O` [Peptide 4ca-var3] (Ac-E[R5]IN[S5]S[Chg][S5]FIR[S5]SDELLHNV-NH2; staple 2-5, 8-12): in data set [1], the “% helicity” value was determined as 91.4%. Further, the helicity in data set [2] amounted to 91.4%.

Consider `CC[C@H](C)[C@@H]1NC(=O)[C@H](Cc2ccccc2)NC(=O)[C@@](C)(NC(=O)[C@H](CC(C)C)NC(=O)[C@H](CO)NC(=O)[C@]2(C)CCCC=CCCC[C@@](C)(NC(=O)[C@H](CCC(=O)O)NC(C)=O)C(=O)N[C@@H]([C@@H](C)CC)C(=O)N[C@@H](CC(N)=O)C(=O)N2)CCCC=CCCC[C@@](C)(C(=O)N[C@@H](CO)C(=O)N[C@@H](CC(=O)O)C(=O)N[C@@H](CCC(=O)O)C(=O)N[C@@H](CC2CCCCC2)C(=O)N[C@@H](CC(C)C)C(=O)N[C@@H](Cc2c[nH]cn2)C(=O)N[C@@H](CC(N)=O)C(=O)N[C@H](C(N)=O)C(C)C)NC(=O)[C@H](CCCNC(=N)N)NC1=O` [Peptide 4ca-var7, E Xaa2 IN Xaa5 SL Xaa8 FIR Xaa12 SDE Xaa16LHNV] (Ac-E[R5]IN[S5]SL[S5]FIR[S5]SDE[Cha]LHNV-NH2; staple 2-5, 8-12), for which the “% helicity” value in data set [1] is listed as 91.4%. For the same molecule, the helicity in data set [2] amounted to 91.4%.
